Like-named read-outs stand apart in the source and are kept apart here.
Biological target: T1, cloned human dopamine D3 receptors (Homo sapiens, UniProt P35462)
T1 construct: expressed in transfected cells; membrane homogenate
Experiment: [N-Methyl-3H]Spiroperidol binding to cloned human dopamine D3 receptors
Summary of the method: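 Radioligand displacement with [N-methyl-3H]spiroperidol was run on membranes from a high-expressing CHO clone carrying human D3. Membranes were prepared in 10% DMSO and stored at −80° C.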

T1 sequence (P35462 whole entry): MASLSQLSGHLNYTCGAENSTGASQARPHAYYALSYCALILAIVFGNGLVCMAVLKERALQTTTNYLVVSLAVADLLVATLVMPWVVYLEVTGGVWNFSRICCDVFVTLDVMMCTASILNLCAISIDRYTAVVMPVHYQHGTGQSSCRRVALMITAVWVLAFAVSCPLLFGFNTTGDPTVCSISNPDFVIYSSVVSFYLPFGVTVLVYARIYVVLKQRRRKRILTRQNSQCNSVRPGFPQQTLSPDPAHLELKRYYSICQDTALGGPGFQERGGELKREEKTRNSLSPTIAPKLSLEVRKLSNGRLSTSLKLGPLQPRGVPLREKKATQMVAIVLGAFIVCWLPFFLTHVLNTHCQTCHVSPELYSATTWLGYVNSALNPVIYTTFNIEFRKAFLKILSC

Structure (SMILES) | Ki (read-out: D3 Ki) [nM] | Ki (read-out: d3Ki) [nM]
O=C(NC1CCCCC1)[C@H](O)CCN1CCC(c2noc3ccsc23)CC1 [compound 830573] | 547 | –
C[C@H]1CC[C@H](NC(=O)[C@@H]2C[C@H]2CN2CCN(c3csc4ncccc34)CC2)CC1 [compound 833700] | 3.24 | –
CN1CCN(CCCNC(=O)[C@@H]2C[C@H]2CN2CCC(c3nsc4cc(Br)ccc34)CC2)CC1 [A002438664] | 6.49 | –
O=C(NCCN1CCNCC1)[C@@H]1C[C@H]1CN1CCN(c2csc3cc(C(F)(F)F)ccc23)CC1 [compound 833322] | 12.8 | –
CN1CCN(CCCNC(=O)[C@@H]2C[C@H]2CN2CCN(c3nn(-c4ccc(OC(F)(F)F)cc4)c4ccsc34)CC2)CC1 [A002287758] | 139 | –
COc1ccc2c(c1)c(N1CCN(C[C@@H]3C[C@H]3C(=O)NCCCn3ccnc3)CC1)nn2C [compound 831808] | 3.84 | –
CCC1CCC(NC(=O)C2CC2CN2CCC(Cc3ccccc3)CC2)CC1 (racemic) [compound 827248] | 19.4 | –
O=C(NCc1ccc(-c2csnn2)cc1)[C@@H]1C[C@H]1CN1CCN(c2csc3cc(C(F)(F)F)ccc23)CC1 [compound 833515] | 48.3 | –
O=C([C@@H]1C[C@H]1CN1CCC(c2noc3ccsc23)CC1)N1CCCC(Cn2ccnc2)C1 (mixture of isomers) [compound 832269] | 5.1 | –
O=C([C@@H]1C[C@H]1CN1CCN(c2csc3cc(C(F)(F)F)ccc23)CC1)N1CCC(N2CCCC2)CC1 [compound 832510] | 25 | –
O=C([C@@H]1C[C@H]1CN1CCC(c2noc3c(C(F)(F)F)cccc23)CC1)N1CCCC(Cn2ccnc2)C1 (mixture of isomers) [compound 833911] | 1.26 | –
O=C([C@@H]1C[C@H]1CN1CCN(c2csc3cc(C(F)(F)F)ccc23)CC1)N1CCN(Cc2ccc(Cl)c(Cl)c2)CC1 [compound 831881] | 109 | –
C[C@H]1CC[C@H](NC(=O)[C@H]2C[C@@H]2CN2CCC(c3cc4ccccc4s3)CC2)CC1 [compound 831147] | 40.8 | –
O=C(NCCN1CCCCC1)[C@@H]1C[C@H]1CN1CCN(c2csc3cc(C(F)(F)F)ccc23)CC1 [compound 831885] | 35.3 | –
CCC1CCC(NC(=O)C2CC2CN2CCCN(c3onc4c3CCc3ccc(OC)cc3-4)CC2)CC1 (racemic) [compound 830131] | 34.1 | –
COc1ccc2c(c1)c(N1CCN(C[C@@H]3C[C@H]3C(=O)NC3CCN(Cc4ccc(F)cc4F)CC3)CC1)nn2C [compound 833627] | 1.63 | –
COc1ccc2c(c1)c(N1CCN(C[C@@H]3C[C@H]3C(=O)NCCCN3CCCCC3)CC1)nn2C [compound 833120] | 138 | –
CC(C)N1CCN(C(=O)[C@@H]2C[C@H]2CN2CCN(c3csc4cc(C(F)(F)F)ccc34)CC2)CC1 [compound 832833] | 18.2 | –
CC[C@H]1CC[C@H](NC(=O)[C@@H]2C[C@H]2CN2CCN(c3nn(C)c4ccc(OC)cc34)CC2)CC1 [832747ES] | 1.05 | –

Structure (SMILES) | Ki (read-out: D3 Ki) [nM] | Ki (read-out: d3Ki) [nM]
COc1ccc2c(c1)c(N1CCN(C[C@@H]3C[C@H]3C(=O)NCC3CCNCC3)CC1)nn2C [compound 833136] | 14.3 | –
O=C(NCc1cccc(OC(F)(F)F)c1)[C@@H]1C[C@H]1CN1CCN(c2csc3cc(C(F)(F)F)ccc23)CC1 [compound 833062] | 55.4 | –
CCOC(=O)[C@H]1CC[C@H](NC(=O)CCCN2CCN(c3csc4cc(C(F)(F)F)ccc34)CC2)CC1 [compound 826805] | – | 14.2
O=C(NCCCn1cnc2ccccc21)[C@@H]1C[C@H]1CN1CCN(c2nn(-c3ccc(OC(F)(F)F)cc3)c3ccsc23)CC1 [A002243385] | 661 | –
O=C(NCCCn1ccnc1)[C@@H]1C[C@H]1CN1CCN(c2nn(-c3ccccc3)c3ccsc23)CC1 [compound 832592] | 7.29 | –
COc1ccc2c(c1)c(N1CCN(C[C@@H]3C[C@H]3C(=O)NC[C@@H]3CCNC3)CC1)nn2C [compound 833632] | 4.06 | –
CCC1CCC(NC(=O)C2CC2CN2CCN(c3nn(-c4ccc(C(F)(F)F)cc4)c4ccccc34)CC2)CC1 (racemic) [compound 830046] | 16.5 | –
COc1ccc2c(c1)c(N1CCN(C[C@@H]3C[C@H]3C(=O)N(C)C3CCN(C)CC3)CC1)nn2C [compound 832745] | 15 | –
CC1CCC(NC(=O)C2CC2CN2CCCN(c3onc4c3CCc3ccccc3-4)CC2)CC1 (racemic) [compound 830123] | 73.8 | –
CC1CCC(NC(=O)C2CC2CN2CCC(n3c(=O)[nH]c4ccccc43)CC2)CC1 (racemic) [compound 827211] | 353 | –
CC1CCN(CCCNC(=O)[C@@H]2C[C@H]2CN2CCN(c3nn(C)c4ccsc34)CC2)CC1 [A002350369] | 100 | –
CC[C@H]1CC[C@H](NC(=O)C2(CCN3CCC(c4noc5ccsc45)CC3)CC2)CC1 [832242A] | 436 | –
O=C(NC1CCN(Cc2cc(F)ccc2F)CC1)[C@@H]1C[C@H]1CN1CCN(c2nn(-c3ccc(OC(F)(F)F)cc3)c3ccsc23)CC1 [A002437082] | 9.23 | –
O=C([C@@H]1C[C@H]1CN1CCC(c2csc3cc(C(F)(F)F)ccc23)CC1)N1CCCC(Cn2ccnc2)C1 (mixture of isomers) [A002287512] | 0.647 | –
N=C(N)N1CCC(CNC(=O)[C@@H]2C[C@H]2CN2CCN(c3csc4cc(C(F)(F)F)ccc34)CC2)CC1 [compound 832496] | 3.66 | –
C[C@H]1CC[C@H](NC(=O)C2(CCN3CCC(c4noc5ccsc45)CC3)CC2)CC1 [832241A] | 51.8 | –
O=C(CCCN1CCN(c2noc3ccsc23)CC1)N1CCC(n2ccnc2)CC1 [compound 832212] | 302 | –
COc1ccc2[nH]nc(N3CCN(C[C@@H]4C[C@H]4C(=O)N[C@H]4CC[C@H](C)CC4)CC3)c2c1 [compound 833704] | 2.3 | –
COCCN1CCN(C(=O)[C@@H]2C[C@H]2CN2CCN(c3csc4cc(C(F)(F)F)ccc34)CC2)CC1 [compound 832835] | 18.1 | –

Next, values leading:

Ki (read-out: D3 Ki) [nM] | Ki (read-out: d3Ki) [nM] | Structure (SMILES)
335 | – | O=C(NCCCN1CCCCC1)[C@@H]1C[C@H]1CN1CCC(c2noc3ccsc23)CC1 [compound 831045]
0.93 | – | O=C(NC1CCN(CC2CC2)CC1)[C@@H]1C[C@H]1CN1CCC(c2noc3ccsc23)CC1 [compound 833483]
4.76 | – | Cc1cc(NC(=O)C2CC2CN2CCC(c3noc4ccsc34)CC2)sn1 (racemic) [compound 829463]
24.2 | – | CC(C)(C)OC(=O)N1CCC(CNC(=O)[C@@H]2C[C@H]2CN2CCC(c3noc4ccsc34)CC2)CC1 [compound 833375]
36.5 | – | O=C(NCC1CCNCC1)[C@@H]1C[C@H]1CN1CCC(c2noc3ccsc23)CC1 [compound 833386]
4.22 | – | O=C(NCCc1ccc(F)cc1)[C@@H]1C[C@H]1CN1CCC(c2noc3ccsc23)CC1 [compound 832725]
657 | – | O=C(NCCS(=O)(=O)c1cccc2cnccc12)C1CC1CN1CCC(c2noc3ccsc23)CC1 (racemic) [compound 832044]
3.12 | – | O=C(NC1CCN(Cc2cccc(Cl)c2)CC1)[C@@H]1C[C@H]1CN1CCC(c2noc3ccsc23)CC1 [compound 832728]
114 | – | COc1ccc(CN2CCN(C(=O)[C@@H]3C[C@H]3CN3CCC(c4noc5ccsc45)CC3)CC2)cc1 [compound 833133]
30.2 | – | O=C(NC1CCN(Cc2cccc(Cl)c2)CC1)[C@@H]1C[C@H]1CN1CCN(c2csc3cc(C(F)(F)F)ccc23)CC1 [compound 832740]
0.861 | – | O=C(C1CC1CN1CCC(c2noc3ccsc23)CC1)N1CCN(Cc2ccc(Cl)c(Cl)c2)CC1 (racemic) [compound 831390]
7.44 | – | Cc1ccc(CCNC(=O)C2CC2CN2CCC(c3noc4ccsc34)CC2)cc1 (racemic) [compound 831803]
42.3 | – | O=C(NC1CCCC1)C1CC1CN1CCC(c2noc3ccsc23)CC1 (racemic) [compound 829592]
0.718 | – | O=C(NC1CCN(Cc2cc(F)cc(F)c2)CC1)C1CC1CN1CCC(c2noc3ccsc23)CC1 (racemic) [compound 832343]
133 | – | O=C(NCCCn1cnc2ccccc21)[C@@H]1C[C@H]1CN1CCN(c2csc3cc(C(F)(F)F)ccc23)CC1 [A002243384]
0.011 | – | O=C(NCCCn1ccnc1)[C@@H]1C[C@H]1CN1CCC(c2noc3cc(C(F)(F)F)ccc23)CC1 [A002287765, 2R-[4-(6-Trifluoromethyl-benzo[d]isoxazol-3-yl)-piperidin-1-ylmethyl]-1R-cycloproanecarboxylic acid (3-imidazol-1-yl-propyl)-amide]
12.1 | – | O=C(NCCc1cccc(Cl)c1)C1CC1CN1CCC(c2noc3ccsc23)CC1 (racemic) [compound 831799]
0.74 | – | O=C(NC1CCN(Cc2ccc(F)cc2)CC1)[C@@H]1C[C@H]1CN1CCC(c2noc3ccsc23)CC1 [compound 832732]
0.239 | – | O=C([C@@H]1C[C@H]1CN1CCC(c2noc3c(C(F)(F)F)cccc23)CC1)N1CCC[C@@H](Cn2ccnc2)C1 [A002437360, (3S-Imidazol-1-ylmethyl-piperidin-1-yl)-{2R-[4-(7-trifluoromethyl-benzo[d]isoxazol-3-yl)-piperidin-1-ylmethyl]-1R-cyclopropyl}-methanone]
25.8 | – | O=C(NCCc1cccc(C(F)(F)F)c1)C1CC1CN1CCC(c2noc3ccsc23)CC1 (racemic) [compound 832047]
11.4 | – | O=C(NCC1CCNCC1)[C@@H]1C[C@H]1CN1CCC(c2nn(-c3ccccc3)c3ccsc23)CC1 [A002440436A]
0.656 | – | O=C(NC1CCN(CC2CCCCC2)CC1)[C@@H]1C[C@H]1CN1CCC(c2noc3ccsc23)CC1 [compound 832733]
8.06 | – | O=C(NCCC(c1ccccc1)c1ccccc1)C1CC1CN1CCC(c2noc3ccsc23)CC1 (racemic) [compound 832191]
16 | – | O=C(NCCCCc1cccnc1)[C@@H]1C[C@H]1CN1CCC(c2noc3ccsc23)CC1 [compound 832530]
81.3 | – | O=C(NCc1cccc(Oc2ccccc2)c1)C1CC1CN1CCC(c2noc3ccsc23)CC1 (racemic) [compound 831735]
13.4 | – | O=C(NCCc1ccc(F)cc1)C1CC1CN1CCC(c2noc3ccsc23)CC1 (racemic) [compound 831802]
2.99 | – | O=C(NC1CCN(Cc2cccnc2)CC1)[C@@H]1C[C@H]1CN1CCC(c2noc3ccsc23)CC1 [compound 833485]

Source: patent US7772252B2, “Heterocyclic substituted carbonyl derivatives and their use as dopamine D3 receptor ligands” (Aventis Pharmaceuticals Inc., priority 2001, dated 2010)
